Patent publication US11173145B2, “Compounds useful as inhibitors of indoleamine 2,3-dioxygenase and/or tryptophan dioxygenase” (Board of Regents, The University of Texas System, priority 2017, dated 2021)

Biological target: T1, IDO1 (Homo sapiens, UniProt P14902)
T1 construct: endogenous in cells; host or cells: HeLa cells (ATCC), IFNgamma-induced
Assay: IDO1 cell-based assay (HeLa cells, IFNgamma-induced, N-formylkynurenine/L-tryptophan by RFMS)
Conditions: 10 ng/mL IFNgamma, 24 hours
Procedure: HeLa cells were obtained from the American Type Culture Collection (ATCC) and maintained in DMEM media containing 10% FBS. Cells (7,000/well) were seeded onto a 384 well plate in 50 μL of media and incubated at 37° C., 5% CO2 overnight. Cell media was aspirated, fresh media containing 10 ng/mL IFNgamma was added, and cells were incubated in absence or presence of various concentrations of test compound (final 0.5% DMSO) for 24 hours. Aliquots of the cell conditioned media were removed from the cell plate, and mixed with an equal volume of 200 mM ZnSO4 to precipitate media containing proteins. Two volumes of acetonitrile were added, mixed, and samples were then centrifuged at 2250G for 20 minutes at 4° C. Aliquots of the supernatant were diluted 1:10 in 0.1% formic acid containing 3 μM of deuterated Tryptophan as an internal standard.
Samples were analyzed via RFMS to quantify N-Formyl Kynurenine (AUC) and L-tryptophan (AUC). A C18 cartridge was used with mobile phases of 0.1% Formic Acid and 80% ACN/0.1% Formic Acid under isocratic conditions. Dose-response curves were analyzed using IC50 regression curve fitting (GeneData Screener). […] Cell viability was also assessed using the Cell Titer Glo Kit (Promega) following manufacturer recommendation.

T1 sequence (P14902 whole entry): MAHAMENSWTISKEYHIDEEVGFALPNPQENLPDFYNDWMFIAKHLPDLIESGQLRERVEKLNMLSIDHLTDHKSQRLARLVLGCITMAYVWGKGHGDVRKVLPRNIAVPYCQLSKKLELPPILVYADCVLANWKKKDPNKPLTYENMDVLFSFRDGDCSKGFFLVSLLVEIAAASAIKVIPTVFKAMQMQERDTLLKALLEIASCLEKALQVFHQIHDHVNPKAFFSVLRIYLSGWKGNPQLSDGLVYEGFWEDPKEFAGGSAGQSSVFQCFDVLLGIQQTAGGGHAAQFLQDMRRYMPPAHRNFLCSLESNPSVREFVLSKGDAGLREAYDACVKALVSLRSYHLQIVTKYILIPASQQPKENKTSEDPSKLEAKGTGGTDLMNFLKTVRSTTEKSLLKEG

SMILES	IC50 [nM]
CC(C)(NC(=O)c1ccc(C#N)cc1)C1[C@H]2CC(n3ncc(=O)c4ccccc43)C[C@@H]12 (stereo partly drawn) [Compound 87, 4-cyano-N-(2-((1R,5S)-3-(4-oxocinnolin-1(4H)-yl)bicyclo[3.1.0]hexan-6-yl)propan-2-yl)benzamide]	< 200
CC[C@@H](NC(=O)c1ccc(Cl)cc1)[C@H]1[C@@H]2C[C@@H](Nc3ncnc4ccc(F)cc34)C[C@@H]21 [Compound 336, 4-chloro-N-((R)-1-((1R,3S,5S,6r)-3-((6-fluoroquinazolin-4-yl)amino)bicyclo[3.1.0]hexan-6-yl)propyl)benzamide]	< 200
CCOC(=O)CC(NC(=O)c1ccc(Cl)cc1)[C@H]1[C@@H]2C[C@@H](Oc3cnnc4ccccc34)C[C@@H]21 (stereo partly drawn) [Compound 84, ethyl 3-(4-chlorobenzamido)-3-((1R,3s,5S,6r)-3-(cinnolin-4-yloxy)bicyclo[3.1.0]hexan-6-yl)propanoate]	< 200
CC(NC(=O)c1ccc(C#N)cc1)[C@H]1[C@@H]2C[C@@H](n3cnc4ccc(F)cc4c3=O)C[C@@H]21 (stereo partly drawn) [Compound 108, 4-cyano-N-(1-((1R,3s,5S,6r)-3-(6-fluoro-4-oxoquinazolin-3(4H)-yl)bicyclo[3.1.0]hexan-6-yl)ethyl)benzamide]	< 200
CCC(NC(=O)c1cnc(OC)nc1)[C@H]1[C@@H]2C[C@@H](Oc3ncnc4ccc(F)cc34)C[C@@H]21 (stereo partly drawn) [Compound 68, N-(1-((1R,3s,5S,6r)-3-((6-fluoroquinazolin-4-yl)oxy)bicyclo[3.1.0]hexan-6-yl)propyl)-2-methoxypyrimidine-5-carboxamide]	2000 to 5000
O=S(=O)(NC1C2CC(Oc3ccnc4ccccc34)CC21)c1ccc(Cl)cc1 (stereo not drawn) [Compound 28, 4-chloro-N-(3-(quinolin-4-yloxy)bicyclo[3.1.0]hexan-6-yl)benzenesulfonamide]	> 5000
CC(C(=O)Nc1ccc(Cl)cc1)[C@H]1[C@@H]2C[C@@H](Oc3cnnc4ccc(F)cc34)C[C@@H]21 (stereo partly drawn) [Compound 340, N-(4-chlorophenyl)-2-((1R,3s,5S,6r)-3-((6-fluorocinnolin-4-yl)oxy)bicyclo[3.1.0]hexan-6-yl)propanamide]	< 200
CCC(NC(=O)c1ccc(Cl)cc1)C1C2CC(OCC3CCOCC3)CC21 [Compound 96, 4-chloro-N-(1-((1R,3s,5S,6r)-3-((tetrahydro-2H-pyran-4-yl)methoxy)bicyclo[3.1.0]hexan-6-yl)propyl)benzamide]	< 200
O=C(NC[C@@H]1[C@H]2C[C@H](n3cnc4cc(F)c(F)cc43)C[C@@H]12)c1ccc(Cl)c(F)c1 [Compound 315, 4-chloro-N-(((1R,3s,5S,6r)-3-(5,6-difluoro-1H-benzo[d]imidazol-1-yl)bicyclo[3.1.0]hexan-6-yl)methyl)-3-fluorobenzamide]	< 200
COc1ccc(C(=O)NC(C)[C@H]2[C@@H]3C[C@@H](Oc4ncnc5ccc(F)cc45)C[C@@H]32)cn1 (stereo partly drawn) [Compound 115, N-(1-((1R,3s,5S,6r)-3-((6-fluoroquinazolin-4-yl)oxy)bicyclo[3.1.0]hexan-6-yl)ethyl)-6-methoxynicotinamide]	< 200
CCC(NC(=O)c1ccc(C#N)cn1)C1C2CC(n3cnc4ccc(F)cc4c3=O)CC21 [Compound 76, 5-cyano-N-(1-((1R,3s,5S,6r)-3-(6-fluoro-4-oxoquinazolin-3(4H)-yl)bicyclo[3.1.0]hexan-6-yl)propyl)picolinamide]	200 to 2000
CC[C@@H](NC(=O)Nc1ccc(Cl)cc1)[C@H]1[C@@H]2C[C@@H](n3cnc4cc(F)c(F)cc43)C[C@@H]21 [Compound 344, 1-(4-chlorophenyl)-3-((R)-1-((1R,3S,5S,6r)-3-(5,6-difluoro-1H-benzo[d]imidazol-1-yl)bicyclo[3.1.0]hexan-6-yl)propyl)urea]	< 200
O=C(NC1C2CN(c3ccnc4ccc(F)cc34)CC21)C(O)c1ccc(Br)cc1 (stereo not drawn) [Compound 111, 2-(4-bromophenyl)-N-(3-(6-fluoroquinolin-4-yl)-3-azabicyclo[3.1.0]hexan-6-yl)-2-hydroxyacetamide]	> 5000
CC[C@@H](NC(=O)c1csc(C)n1)[C@H]1[C@@H]2C[C@@H](n3cnc4cc(F)c(F)cc43)C[C@@H]21 [Compound 309, N-((R)-1-((1R,3S,5S,6r)-3-(5,6-difluoro-1H-benzo[d]imidazol-1-yl)bicyclo[3.1.0]hexan-6-yl)propyl)-2-methylthiazole-4-carboxamide]	200 to 2000

Now from value to compound:

IC50 [nM]	SMILES
< 200	CC[C@@H](NC(=O)c1ccc(F)cc1)[C@H]1[C@@H]2C[C@@H](n3cnc4cc(F)c(F)cc43)C[C@@H]21 [Compound 306, N—((R)-1-((3S,6s)-3-(5,6-difluoro-1H-benzo[d]imidazol-1-yl)bicyclo[3.1.0]hexan-6-yl)propyl)-4-fluorobenzamide]
< 200	CCC(NC(=O)c1ccc(Cl)cc1)[C@H]1[C@@H]2C[C@@H](N3C(=O)Cc4cc(F)ccc43)C[C@@H]21 (stereo partly drawn) [Compound 121, 4-chloro-N-(1-((1R,3s,5S,6r)-3-(5-fluoro-2-oxoindolin-1-yl)bicyclo[3.1.0]hexan-6-yl)propyl)benzamide]
< 200	CCC(NC(=O)c1ccc(Cl)cc1)[C@H]1[C@@H]2C[C@@H](Oc3ccc(F)nc3)C[C@@H]21 (stereo partly drawn) [Compound 18, 4-chloro-N-(1-((1R,3s,5S,6r)-3-((6-fluoropyridin-3-yl)oxy)bicyclo[3.1.0]hexan-6-yl)propyl)benzamide]
< 200	CC[C@@H](NC(=O)c1ccc(Cl)cc1)[C@H]1[C@@H]2C[C@@H](n3cc(Br)cn3)C[C@@H]21 [Compound 329, N-((R)-1-((1R,3S,5S,6r)-3-(4-bromo-1H-pyrazol-1-yl)bicyclo[3.1.0]hexan-6-yl)propyl)-4-chlorobenzamide]
< 200	COCC(NC(=O)c1ccc(Cl)cc1)[C@H]1[C@@H]2C[C@@H](n3cc(C4CC4)nn3)C[C@@H]21 (stereo partly drawn) [Compound 173, 4-chloro-N-(1-((1R,3s,5S,6r)-3-(4-cyclopropyl-1H-1,2,3-triazol-1-yl)bicyclo[3.1.0]hexan-6-yl)-2-methoxyethyl)benzamide]
< 200	CCC(NC(=O)c1ccc(Cl)cc1)[C@H]1[C@@H]2C[C@@H](Oc3c(F)cccc3F)C[C@@H]21 (stereo partly drawn) [Compound 44, 4-chloro-N-(1-((1R,3s,5S,6r)-3-(2,6-difluorophenoxy)bicyclo[3.1.0]hexan-6-yl)propyl)benzamide]
> 5000	CCC(NC(=O)c1ccc(Cl)cc1)[C@H]1[C@@H]2C[C@@H](NC(=O)N3CCNCC3)C[C@@H]21 (stereo partly drawn) [Compound 156, N-((1R,3s,5S,6r)-6-(1-(4-chlorobenzamido)propyl)bicyclo[3.1.0]hexan-3-yl)piperazine-1-carboxamide]
< 200	CCC(NC(=O)c1ccc(Cl)cc1)[C@H]1[C@@H]2C[C@@H](Oc3nc(C)ncc3F)C[C@@H]21 (stereo partly drawn) [Compound 52, 4-chloro-N-(1-((1R,3s,5S,6r)-3-((5-fluoro-2-methylpyrimidin-4-yl)oxy)bicyclo[3.1.0]hexan-6-yl)propyl)benzamide]
< 200	CC[C@@H](NC(=O)c1ccc(Cl)cc1)[C@H]1[C@@H]2C[C@@H](NC(=O)c3ncccc3F)C[C@@H]21 [Compound 327, N-((1R,3S,5S,6r)-6-((R)-1-(4-chlorobenzamido)propyl)bicyclo[3.1.0]hexan-3-yl)-3-fluoropicolinamide]
< 200	CCC(NC(=O)c1ccc(Cl)cc1)C1C2CC(Oc3nncc4ccccc34)CC21 [Compound 72, 4-chloro-N-(1-((1R,3s,5S,6r)-3-(phthalazin-1-yloxy)bicyclo[3.1.0]hexan-6-yl)propyl)benzamide]
< 200	CCC(NC(=O)c1ccc(Cl)cc1)[C@H]1[C@@H]2C[C@@H](n3cnc4ccc(F)cc4c3=O)C[C@@H]21 (stereo partly drawn) [Compound 6, 4-chloro-N-(1-((1R,3s,5S,6r)-3-(6-fluoro-4-oxoquinazolin-3(4H)-yl)bicyclo[3.1.0]hexan-6-yl)propyl)benzamide]
< 200	CC[C@@H](NC(=O)c1ccc(Cl)cc1)[C@H]1[C@@H]2C[C@@H](n3cc(C#N)cn3)C[C@@H]21 [Compound 325, 4-chloro-N-((R)-1-((1R,3S,5S,6r)-3-(4-cyano-1H-pyrazol-1-yl)bicyclo[3.1.0]hexan-6-yl)propyl)benzamide]
< 200	CC[C@@H](NC(=O)c1ccc(Cl)cc1)[C@H]1[C@@H]2C[C@@H](Nc3ccccc3C#N)C[C@@H]21 [Compound 331, 4-chloro-N—((R)-1-((1R,3S,5S, 6r)-3-((2-cyanophenyl)amino)bicyclo[3.1.0]hexan-6-yl)propyl)benzamide]
< 200	CC[C@@H](NC(=O)c1ccc(Cl)cc1)[C@H]1[C@@H]2C[C@@H](n3cc(C)cn3)C[C@@H]21 [Compound 330, 4-chloro-N-((R)-1-((1R,3S,5S,6r)-3-(4-methyl-1H-pyrazol-1-yl)bicyclo[3.1.0]hexan-6-yl)propyl)benzamide]
< 200	CCC(NC(=O)c1ccc(Cl)cc1)[C@H]1[C@@H]2C[C@@H](Oc3ncncc3F)C[C@@H]21 (stereo partly drawn) [Compound 54, 4-chloro-N-(1-((1R,3s,5S,6r)-3-((5-fluoropyrimidin-4-yl)oxy)bicyclo[3.1.0]hexan-6-yl)propyl)benzamide]
200 to 2000	CCC(NC(=O)c1ccc(C#N)cn1)[C@H]1[C@@H]2C[C@@H](n3ncc(=O)c4ccccc43)C[C@@H]21 (stereo partly drawn) [Compound 83, 5-cyano-N-(1-((1R,3s,5S,6r)-3-(4-oxocinnolin-1(4H)-yl)bicyclo[3.1.0]hexan-6-yl)propyl)picolinamide]
